Reference: US20060257480A1, “Pharmaceutical formulations of amyloid inhibiting compounds” (priority 2005, published 2006)

Key:
[1] = Gastrointestinal tolerability of sodium salt capsules (certain studies); assay type: in vivo; settings: solid dosage form (capsules)
Method: (§1) Furthermore, the non-hygroscopic nature of the acid form makes it desirable as active pharmaceutical ingredient. To further protect against any possible gastrointestinal intolerance that could result from the acid form, the tablets are enteric-coated and a modified-release agent is added to control any rapid release of the drug in the stomach and the intestine, respectively.

[2] = Example 10: 3-APS concentration in cerebrospinal fluid (CSF) of AD patients; assay type: in vivo, human; settings: additional tests, treated patients
Text: (Patients having a CSF level below the lower limit of quantitation of the assay are considered as zero.) CSF concentrations of 3-APS on Day 2 of Week 12 after twice daily oral administration for 12 weeks are as follows: […]

[3] = dog, in vivo
Method: as §1

Aβ42 = biological target: T1, Aβ42 (Homo sapiens, UniProt P05067); assay: Example 11 additional tests: CSF Aβ42 levels and Aβ42/Aβ40 ratio in treated patients; assay type: in vivo
T1 construct: from tissue; host or cells: cerebrospinal fluid of AD patients treated with 3-APS
T1 sequence (P05067 672-713 limits assumed): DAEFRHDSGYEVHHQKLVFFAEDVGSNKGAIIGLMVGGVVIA

[4] = Example 8 Part I: multiple rising oral dose pharmacokinetics of NC-758; assay type: in vivo; settings: human, plasma, fasted; for AUC(0-inf) / AUC(0-t) / Cmax: mean; for AUC(0-t): read-out: AUC0-12h; for Tmax: median
Method: (§2) In the following examples and elsewhere herein, terms are as defined below. The pharmacokinetic parameters were derived by non-compartmental analysis using WinNonlin° (Pharsight Corporation, Mountain View, Calif.) or SAS® for Windows® (SAS Institute Inc., Cary, N.C.).
For doses at multiples of 100 mg, multiple 100 mg tables are administered. […] In Part I, 3-APS is administered as a single dose on Days 1 and 12 and on Days 2-11, twice daily at 12 hour intervals.

[5] = Example 7 Part II: food effect on single 200 mg oral dose pharmacokinetics (Table 3 formulation); assay type: in vivo, human; settings: 200 mg single oral, young male
Method: as §2
Following single oral dosing of 200 mg 3-APS (modified-release coated formulation as described in Table 3 above) to young male subjects (aged between 18 and 45 years) under fasted and fed (high fat) conditions, maximum plasma concentrations of 3-APS are attained at 5 and 13.5 h post-dose under fasted and fed conditions, respectively (Table 9A).

[6] = Example 9 Part I: single oral dose pharmacokinetics of NC-758-1 (Table 5 tablet) in healthy elderly; assay type: in vivo; settings: both sexes, human, plasma, elderly male and female, fasted; for AUC(0-inf) / AUC(0-t) / Cmax: mean; for Tmax: median
Text: as §2
Part I—The pharmacokinetic profile and the effect of food on single oral doses of 3-APS free acid (modified-release enteric-coated tablet as described in Table 5 above, hereinafter “NC-758-1“) in healthy male and female elderly (≧55 years) volunteers. For doses at multiples of 50 mg, multiple 50 mg tables are administered. The test is an open label, three-period crossover study to assess the pharmacokinetic profile of 3 single oral doses of NC-758-1 in healthy elderly (≧55 years) male and female subjects. The blood samples are collected during 24 h following dosing. Plasma concentrations of 3-APS are determined using a validated LC-MS/MS method.

[7] = Example 9 Part II: food effect on single 100 mg oral dose pharmacokinetics in elderly (Table 5 formulation); assay type: in vivo; settings: both sexes, human, plasma; 100 mg single oral, elderly male and female, Fasting Arm; median
Method: as §2
Following single oral dosing of 100 mg 3-APS (modified-release coated formulation modified-release enteric-coated tablet as described in Table 5 above) to elderly (55 years or older) male and female subjects under fasted and fed (high fat) conditions, maximum plasma concentrations of 3-APS are attained at 5 and 10.5 h post-dose under fasted and fed conditions, respectively (Table 12A below and FIG. 5 showing the Mean Plasma Concentration-Time Profiles of 3-APS under Fasted and Fed Conditions following Single Oral Administration of 100 mg to Elderly Male and Female Subjects).

[8] = Example 7 Part I: single rising oral dose pharmacokinetics of NC-758 (Table 3 tablet), plasma 3-APS by LC-MS/MS; assay type: in vivo, human; settings: for AUC(0-inf) / Tmax / Cmax / AUC(0-t): human, plasma, fasted; for AUC(0-inf) / Cmax / AUC(0-t): mean; for Tmax: median; for Cmax / AUC(0-t): male, po; for AUC(0-t): read-out: AUC0-Tlast
Text: as §2
Part I—The pharmacokinetic profile and the effect of food on single rising oral doses of 3-APS free acid (modified-release enteric-coated tablet, as described in Table 3 above, hereinafter “NC-758”) in healthy male young (18-45 years) volunteers is determined. For doses at multiples of 100 mg, multiple 100 mg tables are administered. The pharmacokinetics of a single oral dose of NC-758 is also determined in a group of healthy male elderly (≧55 years old) volunteers. The test is a randomized, double-blind, placebo-controlled study to assess the pharmacokinetic profile of 4 single rising oral doses of NC-758 in healthy young (18-45 years) male subjects. Blood samples are collected during 24 h following dosing. Plasma concentrations of 3-APS are determined using a validated LC-MS/MS method.

[9] = Example 13: single 150 mg (3 × 50 mg) oral dose pharmacokinetics in healthy elderly male volunteers, fasting and fed; assay type: in vivo, human; settings: 150 mg (3 × 50 mg) single oral, Fasting Conditions, mean
Method: as §2
A single dose study of 3-APS Modified-Release Coated Tablets (of Table 5 above) in healthy elderly male volunteers following a 150 mg oral dose administration under fed conditions is conducted. For the 150 mg dose, three 50 mg tables are administered.

[10] = both sexes, 200 mg, 200 mg BID, Day 1, elderly (≧55 years) male and female
[11] = both sexes, 200 mg, 200 mg BID, Day 12, elderly (≧55 years) male and female
[12] = male, 100 mg, 100 mg BID, Day 1, young (18-45 years) male
[13] = male, 100 mg, 100 mg BID, Day 12, young (18-45 years) male
[14] = male, 200 mg, 200 mg BID, Day 1, young (18-45 years) male
[15] = male, 200 mg, 200 mg BID, Day 12, young (18-45 years) male
[16] = 100 mg single oral, young (18-45 years) male
[17] = 200 mg single oral, young (18-45 years) male
[18] = 300 mg single oral, young (18-45 years) male
[19] = 100 mg, 100 mg single oral, young (18-45 years) male
[20] = 200 mg, 200 mg single oral, elderly (>55 years) male
[21] = 200 mg, 200 mg single oral, young (18-45 years) male
[22] = 300 mg, 300 mg single oral, young (18-45 years) male
[23] = 400 mg, 400 mg single oral, young (18-45 years) male

NCCCS(=O)(=O)[O-].[Na+] [3-amino-1-propanesulfonic acid, sodium salt]
gastrointestinal symptoms (i.e. nausea and vomiting) [1]: associated with gastrointestinal symptoms

NCCCS(=O)(=O)O [3-APS, 3-amino-1-propanesulfonic acid]
crossing of the blood/brain barrier [2]: crossed the blood/brain barrier | tolerability [3]: better tolerated than the sodium salt form | ratio of Aβ42/Aβ40 (Aβ42; CSF, treated patients (FIGS. 2, 3 and 4)): reduced | CSF Aβ42 levels (Aβ42; treated patients (FIG. 1)): reduced | AUC(0-inf) ([4]; both sexes, 200 mg BID, Day 1, elderly (≧55 years) male and female): 5.5 µg·h/mL | AUC(0-t) ([4]; both sexes, 200 mg BID, Day 12, elderly (≧55 years) male and female): 6.29 µg·h/mL | Cmax [4, 10]: 0.897 µg/mL | AUC(0-t) [4, 10]: 5.02 µg·h/mL | Tmax [4, 10]: 6 h | Cmax [4, 11]: 0.88 µg/mL | Tmax [4, 11]: 5 h | AUC(0-inf) ([4]; 100 mg BID, Day 1, young (18-45 years) male): 1.02 µg·h/mL | AUC(0-inf) ([4]; 200 mg BID, Day 1, young (18-45 years) male): 3.21 µg·h/mL | Cmax [4, 12]: 0.282 µg/mL | AUC(0-t) [4, 12]: 1.33 µg·h/mL | Tmax [4, 12]: 6 h | Cmax [4, 13]: 0.256 µg/mL | AUC(0-t) [4, 13]: 1.43 µg·h/mL | Tmax [4, 13]: 2.5 h | Cmax [4, 14]: 0.517 µg/mL | AUC(0-t) [4, 14]: 2.87 µg·h/mL | Tmax [4, 14]: 4 h | Cmax [4, 15]: 0.581 µg/mL | AUC(0-t) [4, 15]: 4.15 µg·h/mL | Tmax [4, 15]: 4 h | Cmax ([5]; Fed Arm (high fat), mean): 0.631 µg/mL | AUC(0-t) ([5]; human, plasma, Fasting Arm, mean, read-out: AUC0-Tlast): 2.2 µg·h/mL | Tmax ([5]; human, plasma, Fasting Arm, median): 5 h | AUC(0-inf) ([5]; human, plasma, Fed Arm (high fat), mean): 4.5 µg·h/mL | AUC(0-inf) ([6]; 50 mg single oral): 1.57 µg·h/mL | AUC(0-t) ([6]; 50 mg single oral): 1.54 µg·h/mL | Cmax ([6]; 50 mg single oral): 0.469 µg/mL | Tmax ([6]; 50 mg single oral): 5 h | AUC(0-inf) ([6]; 100 mg single oral): 2.87 µg·h/mL | AUC(0-t) ([6]; 100 mg single oral): 3.13 µg·h/mL | Cmax ([6]; 100 mg single oral): 0.745 µg/mL | Tmax ([6]; 100 mg single oral): 5 h | AUC(0-inf) ([6]; 150 mg single oral): 4.5 µg·h/mL | AUC(0-t) ([6]; 150 mg single oral): 5.3 µg·h/mL | Tmax ([6]; 150 mg single oral): 5 h | Tmax [7]: 5 h | AUC0-t greater in elderly subjects compared to young subjects ([8]; 200 mg dose, Tables 9 and 10): approximately 70% | Cmax greater in elderly subjects compared to young subjects ([8]; 200 mg dose, Tables 9 and 10): approximately 70% | AUC(0-inf) [8, 16]: 1.42 µg·h/mL | Tmax [8, 16]: 5 h | AUC(0-inf) [8, 17]: 2.49 µg·h/mL | Tmax [8, 17]: 5 h | AUC(0-inf) [8, 18]: 4.46 µg·h/mL | Tmax [8, 18]: 5 h | Tmax ([8]; 400 mg single oral, young (18-45 years) male): 2 h | Cmax [8, 19]: 0.41 µg/mL | AUC(0-t) [8, 19]: 1.39 µg·h/mL | Cmax [8, 20]: 1.09 µg/mL | AUC(0-t) [8, 20]: 4.88 µg·h/mL | Cmax [8, 21]: 0.661 µg/mL | AUC(0-t) [8, 21]: 2.9 µg·h/mL | Cmax [8, 22]: 0.904 µg/mL | AUC(0-t) [8, 22]: 4 µg·h/mL | Cmax [8, 23]: 5.37 µg/mL | AUC(0-t) [8, 23]: 16 µg·h/mL | AUC0-Tlast [9]: 3.211 µg·h/mL | AUC∞ [9]: 3.284 µg·h/mL
